On the set-up of data set [1]: dose or concentration left out as unconfirmed. The conditions noted are these: co-administration with oral contraceptive containing; cited from earlier work.
Details of data set [2]: species or system human. The conditions noted are these: in vivo. As to the method:
A double-blind, balanced, randomized, two-period, placebo-controlled, crossover study in 20 healthy female subjects (1845 years of age, and who had received Ortho Tri-Cyclen® oral contraceptive (“OC”) for three or more months immediately preceding the start of the study) of cilansetron administration was conducted. All subjects were to have their OC cycles synchronized so that on study Day 1, they received the first dose of their OC for that cycle. All subjects were to continue to receive daily administrations of OC through each of the two consecutive 28-day study periods. […] In addition, during the first 28 days of the study (“the first period”), half of the subjects were administered 2 mg doses of cilansetron three times daily (TID) for 7 days (i.e., study days 14-21), while the other half of the subjects received equivalent doses of a placebo TID. On the first day of the “second period” of the 56-day study (i.e., day 29), the two groups were crossed over for the administration of the reverse treatment (i.e., those subjects who had been administered cilansetron 2 mg TID in the first period were to receive equivalent placebo administrations, and vice versa) for 7 days (i.e., study days 4249). Thereby, all subjects received both cilansetron and placebo treatments and, therefore, served as their own control. Safety was measured by monitoring adverse events, physical examination, clinical laboratory and pulmonary function tests, vital signs, 12 lead ECG, and telemetry. […]
The mean plasma concentration-time profile for EE was determined for both treatment groups in each of the two study periods, and are set forth in Table 1 (the contents of which are graphically illustrated in FIG. 1). The mean plasma concentration-time profile for NGM was determined for both treatment groups in each of the two study periods, and are set forth in Table 2. The mean plasma concentration-time profile for 17-d-NGM was determined for both treatment groups in each of the two study periods, and are set forth in Table 3 (the contents of which are graphically illustrated in FIG. 2). […]

Data set [3] concerns follicle stimulating hormone (FSH). Kind of data set: Mean serum concentration of FSH in crossover study of OC plus cilansetron or placebo. The conditions noted are these: FIG. 4. The format is in vivo, human. As to the method:
(§1) A double-blind, balanced, randomized, two-period, placebo-controlled, crossover study in 20 healthy female subjects (1845 years of age, and who had received Ortho Tri-Cyclen® oral contraceptive (“OC”) for three or more months immediately preceding the start of the study) of cilansetron administration was conducted. All subjects were to have their OC cycles synchronized so that on study Day 1, they received the first dose of their OC for that cycle. All subjects were to continue to receive daily administrations of OC through each of the two consecutive 28-day study periods. […] Safety was measured by monitoring adverse events, physical examination, clinical laboratory and pulmonary function tests, vital signs, 12 lead ECG, and telemetry.
(§2) In efforts to determine the effects (if any) of cilansetron 2 mg administration TID for 7 days on the pharmacodynamics of progesterone (P), luteinizing hormone (LH) and follicle stimulating hormone (FSH), the mean serum concentrations of these hormones was determined across the entire time-course of treatment, as set forth in Tables 6-8 and FIGS. 4-6. […]
(§3) Measurable serum concentrations of […], LH and P were available for 17 out of the 20 subjects, as determined using a validated ADVIA Centaur assay. […]

For another data set, the system named is luteinizing hormone (LH). The experiment in a line: Mean serum concentration of LH in crossover study of OC plus cilansetron or placebo. The format is in vivo, human. The conditions noted are these: FIG. 5. The protocol: as §1, §2, §3
For another data set, the system named is progesterone (P). The experiment in a line: Mean serum concentration of progesterone (P) in crossover study of OC plus cilansetron or placebo. It counts as in vivo, human. The following applies: FIG. 6. The protocol:
as §1, §2, §3

Each structure is given as a SMILES string.

For the compound `Cc1[nH]cnc1CN1CCc2c(c3ccccc3n2C)C1=O` [alosetron], in data set [1], the “decrease in systemic exposure to the EE component” value was 9% and the “decrease in systemic exposure to the LN component” value is on record as 13%.

For the compound `Cc1nccn1C[C@H]1CCc2c(c3cccc4c3n2CCC4)C1=O` [cilansetron, (R)-(−)-4,5,6,8,9,10-hexahydro-10-[(2-methyl-1H-imidazol-1-yl)methyl]-11H-pyrido-[3,2,1-jk]-carbazol-11-one], in data set [2], the “effect on the pharmacokinetic and pharmacodynamic profiles and parameters associated with normal contraceptive use” value is reported as “substantially no or no effect”; the “mean plasma concentration of 17-d-NGM compared with OC therapy alone” value is “substantially the same”; the “mean plasma concentration of EE compared with OC therapy alone” value is given as “substantially the same”. The “mean serum concentration of FSH compared with OC therapy alone” value in data set [3] is “substantially the same”. Also, in the data set with luteinizing hormone (LH), the “mean serum concentration of LH compared with OC therapy alone” value was “substantially the same”. In addition, the “mean serum concentration of endogenous progesterone (P) compared with OC therapy alone” value with progesterone (P) is reported as “substantially the same”.

Source of the values: patent US20070027121A1, “Method of treatment of diarrhea-predominant IBS in a female subject receiving contraceptive therapy” (priority 2005, published 2007).
